Measured values: PubChem BioAssay (NCI)
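Values below derive from 48-hour exposures of cells grown in 96-well plates, with endpoints linearly interpolated between the two concentrations bracketing the appropriate inhibition level. GI50 is the concentration that inhibits growth by half. TGI: total growth inhibition.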

Tests used:
Assay in all cases: NCI tumour cell line growth inhibition, 48 h
SK-MEL-28 melanoma = tested on: SK-MEL-28 melanoma
OVCAR-4 ovarian = tested on: OVCAR-4 ovarian
RXF 393 renal = tested on: RXF 393 renal
U251 CNS = tested on: U251 CNS
UACC-257 melanoma = tested on: UACC-257 melanoma
MALME-3M melanoma = tested on: MALME-3M melanoma
CCRF-CEM leukemia = tested on: CCRF-CEM leukemia
OVCAR-3 ovarian = tested on: OVCAR-3 ovarian
HS 578T breast = tested on: HS 578T breast
T-47D breast = tested on: T-47D breast

SMILES	TGI (SK-MEL-28 melanoma)	TGI (OVCAR-4 ovarian)	TGI (RXF 393 renal)	TGI (U251 CNS)	TGI (UACC-257 melanoma)	TGI (MALME-3M melanoma)	TGI (CCRF-CEM leukemia)	TGI (OVCAR-3 ovarian)	TGI (HS 578T breast)	GI50 (SK-MEL-28 melanoma)	GI50 (OVCAR-4 ovarian)	GI50 (RXF 393 renal)	GI50 (U251 CNS)	GI50 (T-47D breast)	TGI (T-47D breast)	GI50 (OVCAR-3 ovarian)	GI50 (UACC-257 melanoma)	GI50 (MALME-3M melanoma)	GI50 (HS 578T breast)	GI50 (CCRF-CEM leukemia)
COC(=O)C1C(C(=O)OC)C2C(=O)C3C(C(=O)OC)C(C(=O)OC)C3C(=O)C12 (configuration not stated)	> 100 µM	> 100 µM	> 100 µM	> 100 µM	> 100 µM	> 100 µM	> 100 µM													
COc1cc([C@@H]2c3cc4c(cc3[C@@H](NC(=O)c3ccc(C#N)cc3)C3COC(=O)[C@@H]32)OCO4)cc(OC)c1O (some centres not stated)	16.8 µM	> 100 µM	9.92 µM	1.26 µM	20.1 µM	2.59 µM	> 100 µM	4.66 µM												
COc1cc(Nc2cnc3ccc(C(F)(F)F)cc3n2)cc(OC)c1OC	> 100 µM		> 100 µM	> 100 µM	> 100 µM	> 100 µM	> 100 µM	> 100 µM												
O=C1/C(=C\c2ccccc2)CN(C(=O)CCN2CCCCC2)C/C1=C/c1ccccc1	5.69 µM	4.34 µM	3.53 µM	1.86 µM	3.52 µM	5.44 µM	0.866 µM	6.5 µM	5.87 µM											
O=C1NC(=O)c2c1n(Cc1ccccc1)c(=O)n2Cc1ccccc1	> 100 µM	> 100 µM	> 100 µM	> 100 µM	> 100 µM	> 100 µM	> 100 µM	> 100 µM												
Cc1ccc2c(c1)CN1c3ccc(C)cc3CN2C1c1ccccc1O	> 100 µM	> 100 µM	61.2 µM	> 100 µM		> 100 µM	> 100 µM	> 100 µM												
NNC(=O)C(=O)N/N=C1/CCCC1C(=O)CCC(=O)Nc1ccc(Cl)cc1 (configuration not stated)	> 100 µM	> 100 µM	> 100 µM	> 100 µM	> 100 µM	> 100 µM	> 100 µM	> 100 µM												
CCCCCOc1ccc(/C=N/Nc2cc(C)nc3ccc(Cl)cc23)cc1	3.09 µM	3.22 µM	3.08 µM	3.16 µM	3.27 µM	3.39 µM		3.58 µM		1.69 µM	1.72 µM	1.63 µM	1.7 µM	1.76 µM	3.71 µM	1.97 µM	1.72 µM	1.85 µM		
COc1ccc(C(=O)c2cc(OC)c(OC)c(OC)c2OC)cc1O	> 100 µM	> 100 µM		> 100 µM	> 100 µM	> 100 µM		7.65 µM	> 100 µM	6.42 µM	6.14 µM		3.61 µM	4.64 µM	> 100 µM	2.83 µM	4.75 µM	4.49 µM	3.41 µM	
OCc1cc2c(cn1)[nH]c1ccc(NCc3ccccc3)cc12	38.4 µM	> 100 µM	78.5 µM	> 100 µM	59.9 µM	> 100 µM	64.7 µM	69.6 µM												
CC1=N/C(=C\c2ccc(/C=C3/N=C(C)OC3=O)cc2)C(=O)O1	> 100 µM	> 100 µM	> 100 µM	> 100 µM	> 100 µM	> 100 µM	> 100 µM	> 100 µM												
O=c1/c(=C/c2ccccc2[N+](=O)[O-])sc2nnc(-c3cccnc3)n12	> 100 µM	> 100 µM	> 100 µM		> 100 µM	> 100 µM	> 100 µM	> 100 µM												
FC(F)(F)Oc1cccc(-c2cc(NCCCCCCNc3cc(-c4cccc(OC(F)(F)F)c4)nc4ccc(N5CCCC5)cc34)c3cc(N4CCCC4)ccc3n2)c1	3.3 µM	3.19 µM	3.22 µM	4.62 µM	3.88 µM	3.1 µM		3.24 µM		1.83 µM	1.7 µM	1.65 µM	2.11 µM			1.83 µM	1.89 µM	1.68 µM		
CCc1ccccc1NC(=O)c1cccc([N+](=O)[O-])c1O	> 100 µM	> 100 µM	45.1 µM	> 100 µM	77 µM	> 100 µM	> 100 µM	> 100 µM												
Cc1ccc(S(=O)(=O)OCC/C(=C\[Si](C)(C)C)c2ccccc2)cc1	> 100 µM	> 100 µM	> 100 µM	> 100 µM	> 100 µM	> 100 µM	> 100 µM	> 100 µM												
COC(=O)CCC(NC(=S)N/N=C/c1cccs1)C(=O)OC (configuration not stated)	> 100 µM	> 100 µM	> 100 µM	> 100 µM	> 100 µM	> 100 µM		> 100 µM												
COc1cc2oc(-c3ccc(O)cc3)cc(=O)c2c(O)c1C1OC(CO)C(O)C(O)C1O (configuration not stated)	> 100 µM	> 100 µM		> 100 µM	> 100 µM	> 100 µM	> 100 µM	> 100 µM												

SMILES	TGI (SK-MEL-28 melanoma)	TGI (OVCAR-4 ovarian)	TGI (RXF 393 renal)	TGI (U251 CNS)	TGI (UACC-257 melanoma)	TGI (MALME-3M melanoma)	TGI (CCRF-CEM leukemia)	TGI (OVCAR-3 ovarian)	TGI (HS 578T breast)	GI50 (SK-MEL-28 melanoma)	GI50 (OVCAR-4 ovarian)	GI50 (RXF 393 renal)	GI50 (U251 CNS)	GI50 (T-47D breast)	TGI (T-47D breast)	GI50 (OVCAR-3 ovarian)	GI50 (UACC-257 melanoma)	GI50 (MALME-3M melanoma)	GI50 (HS 578T breast)	GI50 (CCRF-CEM leukemia)
O=C(NC12CC3CCC1CC(C3)C2)[C@@H]1CCCN1C(=O)OCc1ccccc1 (some centres not stated)	> 100 µM		54.6 µM	> 100 µM	> 100 µM	> 100 µM	> 100 µM	> 100 µM												
COc1nc2c(c(O)c(C)c(=O)n2OC2OCC(OC(C)=O)C(OC(C)=O)C2OC(C)=O)c(=O)n1C (configuration not stated)	> 100 µM	> 100 µM	> 100 µM	> 100 µM			> 100 µM													
O=c1cc(O)cc2n1CCC2			> 100 µM	> 100 µM	> 100 µM	> 100 µM	> 100 µM	> 100 µM												
O=[N+]([O-])c1cccc(C2=NN(c3ccccc3)C3c4cc(Br)ccc4OCC23)c1 (configuration not stated)	> 100 µM		> 100 µM	> 100 µM	> 100 µM	> 100 µM	> 100 µM	> 100 µM												
N#C/C(=C\c1cc(OCc2ccccc2)c(OCc2ccccc2)cn1)C(N)=O	> 100 µM	> 100 µM	> 100 µM	> 100 µM	> 100 µM	> 100 µM	> 100 µM	> 100 µM												
CCOC(=O)c1nc(C)oc1C(F)(F)F	> 100 µM	> 100 µM	> 100 µM	> 100 µM	> 100 µM	> 100 µM	> 100 µM	> 100 µM												
CCN1C(=S)N(CC)C2C1NC(=S)N2/N=C/C=C/c1ccccc1OC (configuration not stated)	> 100 µM	> 100 µM	0.498 µM	24.4 µM	> 100 µM	63 µM	> 100 µM	0.64 µM	> 100 µM	1.11 µM	1.1 µM	0.092 µM	0.354 µM			0.174 µM	21.8 µM	0.736 µM	0.322 µM	0.346 µM
COc1ccc2sc3c(NCCCN)nc4ccccc4c3c(=O)c2c1	3.28 µM	3.56 µM	2.9 µM	3.19 µM	3.88 µM	3.32 µM	3.66 µM	3.32 µM		1.8 µM	1.86 µM	1.5 µM	1.62 µM	1.74 µM	3.65 µM	1.77 µM	1.91 µM	1.78 µM		1.79 µM
O=C1[C@@H]2C(c3c(Cl)cccc3Cl)=NO[C@@H]2C(=O)N1c1ccc(Cc2ccc(N3C(=O)[C@H]4C(c5c(Cl)cccc5Cl)=NO[C@H]4C3=O)cc2)cc1	> 100 µM	> 100 µM	> 100 µM	> 100 µM	> 100 µM	> 100 µM	> 100 µM	> 100 µM												
O=[N+]([O-])c1ccc(Cl)c2c([N+](=O)[O-])cccc12	> 10 µM	> 10 µM	> 10 µM			> 10 µM	> 10 µM	> 10 µM							> 10 µM					
CCc1cccc(C)c1NC(=O)CCc1nc(=S)[nH][nH]1	> 100 µM	> 100 µM	> 100 µM	> 100 µM	> 100 µM	> 100 µM	> 100 µM	> 100 µM												
O=C(NC1C(=O)NNC1c1cccc([N+](=O)[O-])c1)c1ccccc1 (configuration not stated)	> 100 µM	> 100 µM	> 100 µM	> 100 µM	> 100 µM	> 100 µM	> 100 µM	> 100 µM												
CCCCCCCC(=O)OCC(COC(=O)C(C)(C)C)OC(=O)Cc1ccccc1 (configuration not stated)	> 100 µM	> 100 µM		> 100 µM		> 100 µM	> 100 µM	> 100 µM												
O=[N+]([O-])c1ccccc1C1SCc2nc3ccccc3n21 (configuration not stated)	> 100 µM	> 100 µM	> 100 µM	> 100 µM	> 100 µM	> 100 µM	> 100 µM													
CCCCCCCCCCCC[N+]1(CCCCCCCCCCCC)CCCC(C)C1 (configuration not stated)	1.73 µM		0.894 µM	1.29 µM				0.569 µM	2.2 µM	0.487 µM		0.198 µM	0.327 µM			0.197 µM			0.472 µM	
Cc1nc2ccccc2nc1CC(=O)C(=O)Nc1ccc(Cl)cc1Cl	> 100 µM	> 100 µM	> 100 µM	> 100 µM	> 100 µM	> 100 µM	> 100 µM	> 100 µM												
